Measured values published in US10376486B2, “Compositions and methods for reactivating latent viral infections” (priority 2014, dated 2019).

System: J-Lat A1 cells
Assay: Cell viability of J-Lat A1 cells by Live/Dead dye staining
Type: cell-based
Settings: 2-40 nM PEP005
Description: FIG. 1: PEP005 induces reactivation of HIV latency in vitro. J-Lat A1 cells were exposed to different concentrations of PEP005 and virus reactivation was measured by GFP expression using flow cytometry. Cell viability was determined by Live/Dead dye staining. (A) Chemical Structure of PEP005. […] (D) PEP005 potently reactivates latent HIV in cell lines compared with other LRAs. J-Lat A1 cells were treated with 10 nM PEP005, 500 nM SAHA, 2 μM JQ1, 2 μM GSK343, 10 ng/ml TNF, 2 μM Prostratin, or 5 ng/ml PMA for 24 hours and the percentage of GFP expression was evaluated using flow cytometry. *, p<0.05; **, p<0.01.
J-Lat A1 cells (harboring a single copy of latent HIV LTR and one copy of green fluorescent protein gene under the HIV LTR control) or U1 cells (harboring two latent HIV genomes with defective Tat gene) were cultured in RPMI1640 medium with 10% fetal bovine serum (FBS) and 1% Pen/strep in a 37° C. incubator containing 5% CO2 [24,31]. Both of the cell lines were obtained from NIH AIDS Reagent Program. […] HIV reactivation was quantified by GFP expression using flow cytometry and the data were analyzed using FlowJo Software for J-Lat A1 cells, or by quantitative RT-PCR (RT-qPCR) for J-Lat A1 and U1 cells. Cell viability was evaluated using Live/Dead dye (Life Technologies) by flow cytometry. […]

Question: Which cellular toxicity does the source give for C/C=C(/C)C(=O)O[C@H]1C(C)=C[C@]23C(=O)[C@@H](C=C(CO)[C@@H](O)[C@]12O)[C@H]1[C@@H](C[C@H]3C)C1(C)C [PEP005, (1aR,2S,5R,5aS,6S,8aS,9R,10aR)-5,5a-Dihydroxy-4-(hydroxymethyl)-1,1,7,9-tetramethyl-11-oxo-1a,2,5,5a,6,9,10,10a-octahydro-1H-2,8a-methanocyclopenta[a]cyclpropa[e][10]annulen-6-yl (2Z)-2-methylbut-2-enoate] here?
Answer: absence of any apparent cellular toxicity
